Laboratory results reported in patent US8796289B2 (AbbVie Inc., priority 2011, dated 2014).
pKi: −log10 of the molar value.

Target: GST-tagged-Wee1 kinase (Homo sapiens, UniProt P30291)
Test: Wee1 time-resolved fluorescence equilibrium binding assay (displacement of Oregon Green-labeled ATP-competitive kinase probe)
Protocol: Wee1 kinase was assayed using a time-resolved fluorescence equilibrium binding assay monitoring displacement of a rapidly reversible Oregon Green-labeled ATP-competitive kinase probe (N-(2-(2-(2-(4-(4-(5-chloro-4-(2-(1-hydroxycyclobutyl)thiazol-5-yl)-1H-pyrrolo[2,3-b]pyridin-2-yl)phenyl)piperazin-1-yl)ethoxy)ethoxy)ethyl)-2′,7′-difluoro-3′,6′-dihydroxy-3-oxo-3H-spiro[isobenzofuran-1,9′-xanthene]-5-carboxamide) by competitive Wee1 inhibitors.

Chain of GST-tagged-Wee1 kinase (P30291 whole entry): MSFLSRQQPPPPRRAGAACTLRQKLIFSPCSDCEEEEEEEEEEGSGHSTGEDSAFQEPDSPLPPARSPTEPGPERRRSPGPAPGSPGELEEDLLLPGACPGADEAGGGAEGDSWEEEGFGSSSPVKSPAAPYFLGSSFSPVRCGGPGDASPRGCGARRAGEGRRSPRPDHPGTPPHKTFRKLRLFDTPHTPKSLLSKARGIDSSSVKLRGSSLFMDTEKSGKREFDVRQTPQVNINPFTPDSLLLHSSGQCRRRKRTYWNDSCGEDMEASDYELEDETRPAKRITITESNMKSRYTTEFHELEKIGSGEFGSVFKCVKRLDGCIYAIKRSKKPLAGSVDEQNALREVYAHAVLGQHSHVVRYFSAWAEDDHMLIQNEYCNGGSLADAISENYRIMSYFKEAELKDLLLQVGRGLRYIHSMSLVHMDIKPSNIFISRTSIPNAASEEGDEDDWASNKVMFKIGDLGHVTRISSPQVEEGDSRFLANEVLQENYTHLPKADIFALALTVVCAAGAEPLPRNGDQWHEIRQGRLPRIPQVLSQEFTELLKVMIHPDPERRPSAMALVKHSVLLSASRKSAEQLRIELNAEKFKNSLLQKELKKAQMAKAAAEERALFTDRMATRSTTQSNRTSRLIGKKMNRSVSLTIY

SMILES | pKi
CN1CCN(c2ccc(Nc3ncc4c(=O)n(-c5ccccc5Cl)nc(CCc5ccccc5)c4n3)cc2)CC1 [Example 24, 6-(2-chlorophenyl)-2-{[4-(4-methylpiperazin-1-yl)phenyl]amino}-8-(2-phenylethyl)pyrimido[4,5-d]pyridazin-5(6H)-one] | 8.70
CN1Cc2cc(Nc3ncc4c(=O)n(-c5c(Cl)cccc5Cl)nc(-c5ccncc5)c4n3)ccc2C(C)(C)C1 [Example 256, 6-(2,6-dichlorophenyl)-8-(pyridin-4-yl)-2-[(2,4,4-trimethyl-1,2,3,4-tetrahydroisoquinolin-7-yl)amino]pyrimido[4,5-d]pyridazin-5(6H)-one] | 9.52
CN1CCN(c2ccc(Nc3ncc4c(=O)n(-c5c(Cl)cccc5Cl)nc(-c5ccn(CCCl)n5)c4n3)cc2)CC1 [Example 234, 8-[1-(2-chloroethyl)-1H-pyrazol-3-yl]-6-(2,6-dichlorophenyl)-2-{[4-(4-methylpiperazin-1-yl)phenyl]amino}pyrimido[4,5-d]pyridazin-5(6H)-one] | 9.52
CN1CCN(c2ccc(Nc3ncc4c(=O)n(-c5c(Cl)cccc5Cl)nc(-c5cccc(CNC6CCC6)c5)c4n3)cc2)CC1 [Example 158, 8-{3-[(cyclobutylamino)methyl]phenyl}-6-(2,6-dichlorophenyl)-2-{[4-(4-methylpiperazin-1-yl)phenyl]amino}pyrimido[4,5-d]pyridazin-5(6H)-one] | 9.70
CN1CCN(c2ccc(Nc3ncc4c(=O)n(-c5ncccc5Cl)nc(-c5ccccn5)c4n3)cc2)CC1 [Example 348, 6-(3-chloropyridin-2-yl)-2-{[4-(4-methylpiperazin-1-yl)phenyl]amino}-8-(pyridin-2-yl)pyrimido[4,5-d]pyridazin-5(6H)-one] | 8.74
Cc1ccccc1-n1nc(-c2ccco2)c2nc(Nc3ccc(CN(C)C)cc3)ncc2c1=O [Example 106, 2-({4-[(dimethylamino)methyl]phenyl}amino)-8-(2-furyl)-6-(2-methylphenyl)pyrimido[4,5-d]pyridazin-5(6H)-one] | 8.30
CN1CCN(c2ccc(Nc3ncc4c(=O)n(-c5ccccc5Cl)nc(-c5cccc(Br)c5)c4n3)cc2)CC1 [Example 65, 8-(3-bromophenyl)-6-(2-chlorophenyl)-2-{[4-(4-methylpiperazin-1-yl)phenyl]amino}pyrimido[4,5-d]pyridazin-5(6H)-one] | 9.00
CN1CCN(c2ccc(Nc3ncc4c(=O)n(-c5c(Cl)cccc5Cl)nc(-c5ccn(C)n5)c4n3)cc2)CC1 [Example 151, 6-(2,6-dichlorophenyl)-2-{[4-(4-methylpiperazin-1-yl)phenyl]amino}-8-(1-methyl-1H-pyrazol-3-yl)pyrimido[4,5-d]pyridazin-5(6H)-one] | 10.15
Cc1nn(-c2c(Cl)cccc2Cl)c(=O)c2cnc(Nc3cccc(N4CCN(C)CC4)c3)nc12 [Example 511, 6-(2,6-dichlorophenyl)-8-methyl-2-{[3-(4-methylpiperazin-1-yl)phenyl]amino}pyrimido[4,5-d]pyridazin-5(6H)-one] | 9.34
Cc1nn(-c2c(Cl)cccc2Cl)c(=O)c2cnc(Nc3ccc4c(c3)CCN(S(C)(=O)=O)C4)nc12 [Example 450, 6-(2,6-dichlorophenyl)-8-methyl-2-{[2-(methylsulfonyl)-1,2,3,4-tetrahydroisoquinolin-6-yl]amino}pyrimido[4,5-d]pyridazin-5(6H)-one] | 9.21
CN1CCN(CCn2cc(-c3nn(-c4c(Cl)cccc4Cl)c(=O)c4cnc(Nc5ccc(N6CCN(C)CC6)cc5)nc34)cn2)CC1 [Example 214, 6-(2,6-dichlorophenyl)-8-{1-[2-(4-methylpiperazin-1-yl)ethyl]-1H-pyrazol-4-yl}-2-{[4-(4-methylpiperazin-1-yl)phenyl]amino}pyrimido[4,5-d]pyridazin-5(6H)-one] | 9.40
Cc1nn(-c2ccccc2Cl)c(=O)c2cnc(Nc3ccc4c(c3)CNCC4(C)C)nc12 [Example 482, 6-(2-chlorophenyl)-2-[(4,4-dimethyl-1,2,3,4-tetrahydroisoquinolin-7-yl)amino]-8-methylpyrimido[4,5-d]pyridazin-5(6H)-one] | 9.51
CN1CCN(c2ccc(Nc3ncc4c(=O)n(-c5c(Cl)cccc5Cl)nc(-c5nccn5C)c4n3)cc2)CC1 [Example 354, 6-(2,6-dichlorophenyl)-8-(1-methyl-1H-imidazol-2-yl)-2-{[4-(4-methylpiperazin-1-yl)phenyl]amino}pyrimido[4,5-d]pyridazin-5(6H)-one] | 6.13
CN1CCN(c2ccc(Nc3ncc4c(=O)n(-c5c(Cl)cccc5Cl)nc(-c5cccc(CN6CCCCC6)c5)c4n3)cc2)CC1 [Example 157, 6-(2,6-dichlorophenyl)-2-{[4-(4-methylpiperazin-1-yl)phenyl]amino}-8-[3-(piperidin-1-ylmethyl)phenyl]pyrimido[4,5-d]pyridazin-5(6H)-one] | 10.30
NCCn1ccc(-c2nn(-c3c(Cl)cccc3Cl)c(=O)c3cnc(Nc4ccc(N5CCNCC5)cc4)nc23)n1 [Example 259, 8-[1-(2-aminoethyl)-1H-pyrazol-3-yl]-6-(2,6-dichlorophenyl)-2-{[4-(piperazin-1-yl)phenyl]amino}pyrimido[4,5-d]pyridazin-5(6H)-one] | 9.70
CCc1nn(-c2c(Cl)cccc2Cl)c(=O)c2cnc(Nc3ccc4c(c3)C(C)(C)NCC4)nc12 [Example 463, 6-(2,6-dichlorophenyl)-2-[(1,1-dimethyl-1,2,3,4-tetrahydroisoquinolin-7-yl)amino]-8-ethylpyrimido[4,5-d]pyridazin-5(6H)-one] | 9.26

More lines, in order of rising pKi, values ahead:

pKi | SMILES
6.46 | CCCc1nn(CCC#N)c(=O)c2cnc(Nc3ccc(N4CCN(C)CC4)cc3)nc12 [Example 21, 3-[2-{[4-(4-methylpiperazin-1-yl)phenyl]amino}-5-oxo-8-propylpyrimido[4,5-d]pyridazin-6(5H)-yl]propanenitrile]
6.59 | COc1ccccc1-n1nc(-c2ccc(Cl)cc2Cl)c2nc(Nc3ccc(N4CCN(C)CC4)cc3)ncc2c1=O [Example 43, 8-(2,4-dichlorophenyl)-6-(2-methoxyphenyl)-2-{[4-(4-methylpiperazin-1-yl)phenyl]amino}pyrimido[4,5-d]pyridazin-5(6H)-one]
7.57 | CN1CCC(n2nc(-c3ccccn3)c3nc(Nc4ccc5c(c4)CNCC5(C)C)ncc3c2=O)CC1 [Example 329, 2-[(4,4-dimethyl-1,2,3,4-tetrahydroisoquinolin-7-yl)amino]-6-(1-methylpiperidin-4-yl)-8-(pyridin-2-yl)pyrimido[4,5-d]pyridazin-5(6H)-one]
7.61 | CN1CCN(c2ccc(Nc3ncc4c(=O)n(-c5ccccc5)nc(-c5cnn(C)c5)c4n3)cc2)CC1 [Example 85, 2-{[4-(4-methylpiperazin-1-yl)phenyl]amino}-8-(1-methyl-1H-pyrazol-4-yl)-6-phenylpyrimido[4,5-d]pyridazin-5(6H)-one]
8.92 | Cc1nn(-c2c(Cl)cccc2Cl)c(=O)c2cnc(Nc3ccc(CN4CCN(C)CC4)cc3)nc12 [Example 454, 6-(2,6-dichlorophenyl)-8-methyl-2-({4-[(4-methylpiperazin-1-yl)methyl]phenyl}amino)pyrimido[4,5-d]pyridazin-5(6H)-one]
9.00 | CN1CCN(c2ccc(Nc3ncc4c(=O)n(-c5ccccc5Cl)nc(-c5ccccn5)c4n3)cc2)CC1 [Example 60, 6-(2-chlorophenyl)-2-{[4-(4-methylpiperazin-1-yl)phenyl]amino}-8-(pyridin-2-yl)pyrimido[4,5-d]pyridazin-5(6H)-one]
9.00 | CN1CCN(c2ccc(Nc3ncc4c(=O)n(-c5c(Cl)cccc5Cl)nc(C(F)(F)F)c4n3)cc2)CC1 [Example 412, 6-(2,6-dichlorophenyl)-2-{[4-(4-methylpiperazin-1-yl)phenyl]amino}-8-(trifluoromethyl)pyrimido[4,5-d]pyridazin-5(6H)-one]
9.15 | CCc1nn(-c2c(Cl)cccc2Cl)c(=O)c2cnc(Nc3ccc4c(c3)CC(N(C)C)C4)nc12 (centres unmarked) [Example 406, 6-(2,6-dichlorophenyl)-2-{[2-(dimethylamino)-2,3-dihydro-1H-inden-5-yl]amino}-8-ethylpyrimido[4,5-d]pyridazin-5(6H)-one]
9.27 | Cc1cc(Nc2ncc3c(=O)n(-c4c(F)cccc4Cl)nc(C)c3n2)ccc1N1CCCN(C)CC1 [Example 368, 6-(2-chloro-6-fluorophenyl)-8-methyl-2-(3-methyl-4-(4-methyl-1,4-diazepan-1-yl)phenylamino)pyrimido[4,5-d]pyridazin-5(6H)-one]
9.44 | Cc1cccc(Cl)c1-n1nc(C)c2nc(Nc3ccc(OC4CCN(C)CC4)cc3)ncc2c1=O [Example 502, 6-(2-chloro-6-methylphenyl)-8-methyl-2-({4-[(1-methylpiperidin-4-yl)oxy]phenyl}amino)pyrimido[4,5-d]pyridazin-5(6H)-one]
9.64 | CCc1nn(-c2c(Cl)cccc2Cl)c(=O)c2cnc(Nc3ccc4c(c3)CN(C)CC43CC3)nc12 [Example 402, 6-(2,6-dichlorophenyl)-8-ethyl-2-[(2′-methyl-2′,3′-dihydro-1′H-spiro[cyclopropane-1,4′-isoquinolin]-7′-yl)amino]pyrimido[4,5-d]pyridazin-5(6H)-one]
9.70 | COC(=O)c1cc(-c2nn(-c3c(Cl)cccc3Cl)c(=O)c3cnc(Nc4ccc(N5CCN(C)CC5)cc4)nc23)ccn1 [Example 222, methyl 4-[6-(2,6-dichlorophenyl)-2-{[4-(4-methylpiperazin-1-yl)phenyl]amino}-5-oxo-5,6-dihydropyrimido[4,5-d]pyridazin-8-yl]pyridine-2-carboxylate]
9.77 | Cc1nn(-c2ccccc2Cl)c(=O)c2cnc(Nc3ccc4c(c3)CC(N(C)C)C4)nc12 (centres unmarked) [Example 484, 6-(2-chlorophenyl)-2-{[2-(dimethylamino)-2,3-dihydro-1H-inden-5-yl]amino}-8-methylpyrimido[4,5-d]pyridazin-5(6H)-one]
